This is an account of results in ChEMBL document CHEMBL1240378, “Pharmacokinetic-pharmacodynamic modeling of alpha interferon response induced by a Toll-like 7 receptor agonist in mice” (Antimicrob Agents Chemother, 2010).

For data set [1], the system named is Mus musculus. As to the kind of experiment: Intercompartmental clearance in CD1 mouse at 0.1 to 10 mg/kg, po. The format is ADME, organism-based. Details: dose 0.1-10 mg/kg, route oral. The conditions noted are these: in vivo.
Data set [2] concerns Mus musculus. Put plainly: Induction of IFNalpha production in CD1 mouse assessed as concentration of compound required for half-maximal synthesis of INF-alpha at 0.1 to 10 mg/kg, po. The conditions noted are these: dose mg/kg 0.1-10. The format is functional.
In data set [3] the test system is Mus musculus. As to the kind of experiment: Absorption rate constant for depot compartment in CD1 mouse at 0.1 to 10 mg/kg, po. The format is ADME, organism-based. Further details: dose 0.1-10 mg/kg, route oral. The conditions noted are these: in vivo.
Data set [4] relates to Mus musculus. Put plainly: Induction of IFNalpha production in CD1 mouse assessed as maximum rate of interferon alpha synthesis at 0.1 to 10 mg/kg, po. The format is functional. The conditions noted are these: dose mg/kg 0.1-10.
Data set [5] is described as follows: Clearance in CD1 mouse at 0.1 to 10 mg/kg, po. The conditions noted are these: in vivo. The format is ADME, organism-based. Further details: dose 0.1-10 mg/kg, route oral.
Data set [6] can be described thus: Oral bioavailability in rat at 3 mg/kg. The conditions noted are these: in vivo. The format is ADME, organism-based.
In data set [7] the test system is Mus musculus. Put plainly: Apparent volume of distribution in CD1 mouse at 0.1 to 10 mg/kg, po. The conditions noted are these: in vivo. The format is ADME, organism-based. Details: dose 0.1-10 mg/kg, route oral.
The subject of data set [8] is Hepatitis C virus. Put plainly: Antiviral activity against HCV infected in human Huh7 cells with persistent PFK1389-Luc-Ubi-Neo-NS3-3'/ET replicon after 48 hrs by luminescence based assay. The conditions noted are these: Huh-7, 48 h. The format is functional, organism-based, Hepacivirus hominis. In general terms: Replicon systems follow genome replication, usually without infectious particles.

The test system of data set [9] is Mus musculus. As to the kind of experiment: Induction of IFNalpha production in CD1 mouse assessed as elimination rate constant for interferon alpha at 0.1 to 10 mg/kg, po. The format is functional. The conditions noted are these: dose mg/kg 0.1-10.
Data set [10] relates to Mus musculus. Put plainly: Volume of distribution in central compartment in CD1 mouse at 0.1 to 10 mg/kg, po. The format is ADME, organism-based. The conditions noted are these: in vivo. Further details: dose 0.1-10 mg/kg, route oral.

As for `COCCOc1nc(N)c2[nH]c(=O)n(Cc3ccccc3)c2n1`, the CL in data set [1] was determined as 2.78 L/h/kg. For the same molecule, the SC50 in data set [2] was 135 ng/mL. For the same molecule, in data set [3], the Ka worked out at 35 h⁻¹. The Smax in data set [4] stood at 294 IU/ml/hr. Besides, in data set [5], the CL/F (in general, the apparent clearance, not corrected for the fraction that reaches the circulation) is 3.45 L/h/kg. For the same molecule, in data set [6], the bioavailability (commonly the share of a dose that reaches the circulation, judged against a reference dose that is usually intravenous) worked out at 40%. In addition, the Vz in [7] came out at 40 L/kg. Further, the half-maximal effective concentration (EC50) (in general, the midpoint of the concentration-response curve) in data set [8] turned out to be 0.03 µM. Besides, the Activity in data set [9] stood at 0.958 h⁻¹. Also, in data set [10], the Vd worked out at 4.31 L/kg.
